Experimental data from article PMC3658555 (ACS Chemical Biology, 2013).

What was measured:
β2AR [1] = biological target: T1, β2AR (Homo sapiens, UniProt P07550); assay: GloSensor cAMP formation assay; format: cell-based; details: from cAMP formation and β-arrestin recruitment
β2AR [2] = biological target: T1, β2AR; assay: Bias factor by the operational model, β-arrestin recruitment; format: cell-based

T1 sequence (P07550 whole entry): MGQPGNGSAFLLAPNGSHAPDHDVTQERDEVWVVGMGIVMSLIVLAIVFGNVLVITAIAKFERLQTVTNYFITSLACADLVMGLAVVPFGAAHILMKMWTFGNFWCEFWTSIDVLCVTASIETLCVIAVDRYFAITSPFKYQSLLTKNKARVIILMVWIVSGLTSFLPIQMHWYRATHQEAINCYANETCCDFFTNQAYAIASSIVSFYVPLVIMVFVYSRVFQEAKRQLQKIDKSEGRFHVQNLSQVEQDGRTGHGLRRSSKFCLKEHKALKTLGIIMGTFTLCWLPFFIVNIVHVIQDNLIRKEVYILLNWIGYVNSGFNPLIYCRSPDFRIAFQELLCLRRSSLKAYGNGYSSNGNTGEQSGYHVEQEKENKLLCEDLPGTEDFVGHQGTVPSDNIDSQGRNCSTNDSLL

Q: What does the source list for `CC(Cc1ccc2c(c1)OCO2)NCC(O)c1ccc(O)c(O)c1` (stereo not drawn) [Compound 12, protokylol]?
A: agonist efficacy class at β2AR (β2AR [1]): full agonists; times more efficacious in β-arrestin recruitment than in G protein-mediated cAMP production (β2AR [2]; compared to isoproterenol, the unbiased reference): approximately 10 times; bias factor (β2AR [2]; toward β-arrestin, from both Tango and DiscoveRx β-arrestin against Glosensor cAMP data sets, reference isoproterenol): around 1
